Experimental data: publication PMC10504751, “Chalcone/1,3,4-Oxadiazole/Benzimidazole hybrids as novel anti-proliferative agents inducing apoptosis and inhibiting EGFR & BRAFV^600E” (BMC Chemistry, 2023)
Like-named read-outs stand apart in the source and are kept apart here.

Key:
HCC-2998 = experiment: NCI one-dose SRB anti-proliferative screen; format: cell-based; settings: Homo sapiens, read-out: Cell growth inhibition %
Summary of the method: (§1)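 Using a fixed 10 µM dose, anti-proliferative activity is measured through sulforhodamine B binding, read colorimetrically, in one of sixty human tumour lines.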

HOP-92 = experiment: NCI one-dose SRB anti-proliferative screen; format: cell-based; settings: Homo sapiens, read-out: Cell growth inhibition %
Summary of the method: as §1

SF-268 = experiment: NCI one-dose SRB anti-proliferative screen; format: cell-based; settings: Homo sapiens, read-out: Cell growth inhibition %
Summary of the method: as §1

HL-60(TB) = experiment: NCI one-dose SRB anti-proliferative screen; format: cell-based; settings: Homo sapiens, read-out: Cell growth inhibition %
Summary of the method: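 Activity reflects a single-point exposure at 10 µM, with cell mass determined by a sulforhodamine B dye assay.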

M14 = experiment: NCI one-dose SRB anti-proliferative screen; format: cell-based; settings: Homo sapiens, read-out: Cell growth inhibition %
Summary of the method: as §1

MALME-3M = experiment: NCI one-dose SRB anti-proliferative screen; format: cell-based; settings: Homo sapiens, read-out: Cell growth inhibition %
Summary of the method: as §1

MDA-MB-435 = experiment: NCI one-dose SRB anti-proliferative screen; format: cell-based; settings: Homo sapiens, read-out: Cell growth inhibition %
Summary of the method: as §1

SNB-19 = experiment: NCI one-dose SRB anti-proliferative screen; format: cell-based; settings: Homo sapiens, read-out: Cell growth inhibition %
Summary of the method: as §1

MDA-MB-231/ATCC = experiment: NCI one-dose SRB anti-proliferative screen; format: cell-based; settings: Homo sapiens, read-out: Cell growth inhibition %
Summary of the method: as §1

SK-MEL-28 = experiment: NCI one-dose SRB anti-proliferative screen; format: cell-based; settings: Homo sapiens, read-out: Cell growth inhibition %
Summary of the method: as §1

NCI-H322M = experiment: NCI one-dose SRB anti-proliferative screen; format: cell-based; settings: Homo sapiens, read-out: Cell growth inhibition %
Summary of the method: as §1

A498 = experiment: NCI one-dose SRB anti-proliferative screen; format: cell-based; settings: Homo sapiens, read-out: Cell growth inhibition %
Summary of the method: as §1

SF-539 = experiment: NCI one-dose SRB anti-proliferative screen; format: cell-based; settings: Homo sapiens, read-out: Cell growth inhibition %
Summary of the method: as §1

SNB-75 = experiment: NCI one-dose SRB anti-proliferative screen; format: cell-based; settings: Homo sapiens, read-out: Cell growth inhibition %
Summary of the method: as §1

A549/ATCC = experiment: NCI one-dose SRB anti-proliferative screen; format: cell-based; settings: Homo sapiens, read-out: Cell growth inhibition %
Summary of the method: as §1

NCI-H522 = experiment: NCI one-dose SRB anti-proliferative screen; format: cell-based; settings: Homo sapiens, read-out: Cell growth inhibition %
Summary of the method: as §1

SK-MEL-5 = experiment: NCI one-dose SRB anti-proliferative screen; format: cell-based; settings: Homo sapiens, read-out: Cell growth inhibition %
Summary of the method: as §1

TK-10 = experiment: NCI one-dose SRB anti-proliferative screen; format: cell-based; settings: Homo sapiens, read-out: Cell growth inhibition %
Summary of the method: as §1

COLO 205 = experiment: NCI one-dose SRB anti-proliferative screen; format: cell-based; settings: Homo sapiens, read-out: Cell growth inhibition %
Summary of the method: as §1

NCI/ADR-RES = experiment: NCI one-dose SRB anti-proliferative screen; format: cell-based; settings: Homo sapiens, read-out: Cell growth inhibition %
Summary of the method: as §1

[1] = test system: Caspase-9 in MCF-7 breast cancer cells; experiment: Caspase-9 assay; format: cell-based, human
[2] = test system: Caspase-8 in MCF-7 breast cancer cells; experiment: Caspase-8 assay; format: cell-based, human
BRAF^V600E = experiment: biochemical
Chain of BRAF^V600E (P28028 whole entry V585E): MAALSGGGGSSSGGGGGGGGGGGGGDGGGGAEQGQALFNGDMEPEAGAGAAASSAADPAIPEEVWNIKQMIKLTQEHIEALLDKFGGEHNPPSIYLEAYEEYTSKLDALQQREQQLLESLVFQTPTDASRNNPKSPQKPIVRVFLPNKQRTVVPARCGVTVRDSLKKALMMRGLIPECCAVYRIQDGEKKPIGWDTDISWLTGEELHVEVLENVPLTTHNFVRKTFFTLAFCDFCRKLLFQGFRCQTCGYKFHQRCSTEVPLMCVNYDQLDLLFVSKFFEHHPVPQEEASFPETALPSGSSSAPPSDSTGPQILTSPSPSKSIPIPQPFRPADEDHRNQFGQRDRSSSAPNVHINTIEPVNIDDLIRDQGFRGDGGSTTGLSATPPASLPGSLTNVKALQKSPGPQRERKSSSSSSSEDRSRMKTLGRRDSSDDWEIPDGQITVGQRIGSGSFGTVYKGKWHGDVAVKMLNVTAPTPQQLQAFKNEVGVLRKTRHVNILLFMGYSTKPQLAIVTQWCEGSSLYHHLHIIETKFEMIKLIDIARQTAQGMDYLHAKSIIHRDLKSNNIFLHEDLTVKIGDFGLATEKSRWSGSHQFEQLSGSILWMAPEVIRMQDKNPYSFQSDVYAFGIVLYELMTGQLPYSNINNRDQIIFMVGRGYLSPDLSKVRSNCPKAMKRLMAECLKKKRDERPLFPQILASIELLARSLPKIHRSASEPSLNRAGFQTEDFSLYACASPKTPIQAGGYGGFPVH
Procedure: To further denature the protein, heat (70° C) was applied for 5 min. […] 10 µL of each reaction was loaded into the precast plates and electrophoresis was allowed to proceed. After completion of electrophoresis, the front part of the precast gel plate (holding hot ATP) was cut and afterwards cast-off. The dried gel was developed using a phosphor screen.

[3] = test system: Caspase-3 in MCF-7 breast cancer cells; experiment: Caspase-3 assay
Procedure: All reagents were allowed to reach room temperature before use. All liquid reagents were gently mixed before use. The number of 8-well strips needed for the assay was determined. These were inserted into the frame(s) for current use. A total of 100 µL of the Standard Diluent Buffer was added to the zero standard wells. Well(s) reserved for chromogen blank were left empty. A total of 100 µL of standards and controls or diluted samples was added to the appropriate microtiter wells. The sample dilution chosen was optimized for each experimental system. The side of the plate was gently tapped on to
mix. Wells were covered with a plate cover and incubated for 2 h at room temperature. The solution was thoroughly aspirated or decanted from the wells and the liquid was discarded; wells were washed four times. […] The side of the plate was gently tapped on to mix. The plate was covered with a plate cover and incubated for 1h at room temperature. The solution was thoroughly aspirated or decanted from wells and the liquid was discarded; wells were washed four times. A total of 100 µL Anti-Rabbit IgG HRP Working Solution was added to each well except the chromogen blank(s). The working dilution was prepared as described in Preparing IgG HRP. Wells were covered with the plate cover and incubated for 30 min at room temperature. The solution was thoroughly aspirated or decanted from the wells and the liquid was discarded. Wells were washed four times. A total of 100 µL of Stabilized Chromogen was added to each well. The liquid in the wells began to turn blue. It was incubated for 30 min at room temperature and in the dark. The incubation time for chromogen substrate was determined by the microtiter plate reader used. Many plate readers have the capacity to record a maximum optical density (O.D.) of 2.0. The O.D. values were monitored, and the substrate reaction was stopped before the O.D. of the positive wells exceeds the limits of the instrument. The O.D. values at 450 nm could only be read after the Stop Solution had been added to each well. A total of 100 µL of Stop Solution was added to each well. The side of the plate was gently tapped to mix. The solution in the wells changed from blue to yellow. The absorbance of each well was read at 450 nm, having blanked the plate reader against a chromogen blank composed of 100 µL each of Stabilized Chromogen and Stop Solution. The plate was read within 2 h after adding the Stop Solution. A curve fitting software was used to generate the standard curve.
The concentrations for unknown samples and controls from the standard curve were read. Value(s) obtained for sample(s) by the appropriate dilution factor were multiplied to correct for the dilution in step 3.

EGFR = molecular target: T1, EGFR (Homo sapiens, UniProt P00533); experiment: EGFR-TK inhibitory assay; format: biochemical; settings: read-out: EGFR Inhibition IC50 ± SEM
T1 construct: EGFR cytoplasmic domain (EGFR-CD, amino acids 645–1186); His6 (N); made in house; host or cells: Sf-9 insect cells (baculovirus; pBlueBacHis2B / pFASTBacHTc)
T1 sequence (P00533 669-1210): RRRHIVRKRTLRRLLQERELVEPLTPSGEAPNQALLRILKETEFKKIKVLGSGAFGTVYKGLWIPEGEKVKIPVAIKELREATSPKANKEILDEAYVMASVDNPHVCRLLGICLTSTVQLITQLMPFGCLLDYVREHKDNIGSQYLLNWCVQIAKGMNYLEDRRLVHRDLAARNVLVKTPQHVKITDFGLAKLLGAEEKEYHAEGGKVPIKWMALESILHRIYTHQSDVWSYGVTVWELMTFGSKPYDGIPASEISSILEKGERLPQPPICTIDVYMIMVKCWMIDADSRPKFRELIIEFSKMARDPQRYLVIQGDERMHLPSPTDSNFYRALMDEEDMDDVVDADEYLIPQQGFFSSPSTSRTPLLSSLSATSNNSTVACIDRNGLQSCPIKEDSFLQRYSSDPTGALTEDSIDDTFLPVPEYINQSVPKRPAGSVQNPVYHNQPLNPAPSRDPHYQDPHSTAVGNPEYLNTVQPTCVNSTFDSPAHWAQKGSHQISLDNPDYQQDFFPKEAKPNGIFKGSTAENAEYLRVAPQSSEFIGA

[4] = test system: melanoma LOX-IMVI cell line; experiment: Propidium iodide anti-proliferative assay in LOX-IMVI; format: cell-based, human; settings: Homo sapiens; melanoma LOX-IMVI, 48 h incubation
Procedure: Consequently, the half-maximal inhibitory concentration (IC50) of these compounds was determined in LOX-IMVI cell line using propidium iodide (PI)^31, 32 with Staurosporine (broad spectrum protein kinase inhibitor) as a reference.
Cells whose cell membranes are damaged or have changed permeability are counted as dead ones. […] The medium was removed; the compounds were added to the plates at 10 µM concentrations (in 0.1% DMSO) in triplicates, followed by incubation for 48 h. DMSO (0.1%) was used as control. After incubation, medium was removed followed by the addition of PI (25 µl, 50µg/mL in water/medium) to each well of the plates. At -80 °C, the plates were allowed to freeze for 24 h, followed by thawing at 25 °C. A fluorometer (Polar-Star BMG Tech) was used to record the readings at excitation and emission wavelengths of 530 and 620 nm for each well. The percentage cytotoxicity of compounds was calculated using the following formula:
Where ATC= Absorbance of treated cells and AC= Absorbance of control.

SMILES: COc1ccc(/C=C/C(=O)c2ccc(NC(=O)CSc3nnc(-c4ccc5[nH]c(-c6ccc(OC)cc6)nc5c4)o3)cc2)cc1 [Compound 7m, 2-{5-[2-(4-Methoxyphenyl)-1 H-benzo[d]imidazol-5-yl]-1,3,4-oxadiazol-2-ylthio}-N-{4-[(E)-3-(4-methoxyphenyl)acryloyl]phenyl}acetamide]
- inhibition at 10 µM (HCC-2998; HCC-2998, Colon cancer, NCI one dose): 0%
- inhibition at 10 µM (HOP-92; HOP-92, Non-Small Cell Lung Cancer, NCI one dose): 18.9%
- inhibition at 10 µM (SF-268; SF-268, CNS Cancer, NCI one dose): 5.02%
- inhibition at 10 µM (HL-60(TB); HL-60(TB), Leukemia, NCI one dose): 21.9%
- inhibition at 10 µM (M14; M14, Melanoma, NCI one dose): 0%
- inhibition at 10 µM (MALME-3M; MALME-3M, Melanoma, NCI one dose): 17.8%
- inhibition at 10 µM (MDA-MB-435; MDA-MB-435, Melanoma, NCI one dose): 7.11%
- inhibition at 10 µM (SNB-19; SNB-19, CNS Cancer, NCI one dose): 3.7%
- inhibition at 10 µM (MDA-MB-231/ATCC; MDA-MB-231/ATCC, Breast cancer, NCI one dose): 9.52%
- inhibition at 10 µM (SK-MEL-28; SK-MEL-28, Melanoma, NCI one dose): 2%
- inhibition at 10 µM (NCI-H322M; NCI-H322M, Non-Small Cell Lung Cancer, NCI one dose): 3.18%
- inhibition at 10 µM (A498; A498, Renal cancer, NCI one dose): 0%
- inhibition at 10 µM (SF-539; SF-539, CNS Cancer, NCI one dose): 18%
- inhibition at 10 µM (SNB-75; SNB-75, CNS Cancer, NCI one dose): 0%
- inhibition at 10 µM (A549/ATCC; A549/ATCC, Non-Small Cell Lung Cancer, NCI one dose): 0%
- inhibition at 10 µM (NCI-H522; NCI-H522, Non-Small Cell Lung Cancer, NCI one dose): 22.8%
- inhibition at 10 µM (SK-MEL-5; SK-MEL-5, Melanoma, NCI one dose): 22.2%
- inhibition at 10 µM (TK-10; TK-10, Renal cancer, NCI one dose): 0%
- inhibition at 10 µM (COLO 205; COLO 205, Colon cancer, NCI one dose): 0%
- inhibition at 10 µM (NCI/ADR-RES; NCI/ADR-RES, Ovarian Cancer, NCI one dose): 0%
- Caspase-9 Fold change ([1]; MCF-7, vs untreated control): 15.00 fold
- Caspase-9 Conc ([1]; MCF-7 breast cancer cells): 13.900 ng/mL
- Caspase-8 Fold change ([2]; MCF-7, vs untreated control): 7.90 fold
- Caspase-8 Conc ([2]; MCF-7 breast cancer cells): 1.350 ng/mL
- IC50 (BRAF^V600E): 2200 ± 200 nM
- Caspase-3 Fold change ([3]; MCF-7, vs untreated control): 7.20 fold
- Caspase-3 Conc ([3]; MCF-7 breast cancer cells): 473.60 ± 3.50 pg/mL
- IC50 (EGFR): 900 ± 100 nM

SMILES: COc1ccc(-c2nc3cc(-c4nnc(SCC(=O)Nc5ccc(C(=O)/C=C/c6ccccc6)cc5)o4)ccc3[nH]2)cc1OC [Compound 7p, 2-{5-[2-(3,4-Dimethoxyphenyl)-1 H-benzo[d]imidazol-5-yl]-1,3,4-oxadiazol-2-ylthio}-N-{4-[(E)-3-phenylacryloyl]phenyl}acetamide]
- inhibition at 10 µM (HCC-2998; HCC-2998 (Colon Cancer), NCI one dose 10 µM): 0%
- inhibition at 10 µM (HOP-92; HOP-92 (Non-Small Cell Lung Cancer), NCI one dose 10 µM): 1.64%
- inhibition at 10 µM (SF-268; SF-268 (CNS Cancer), NCI one dose 10 µM): 0%
- inhibition at 10 µM (HL-60(TB); HL-60(TB) (Leukemia), NCI one dose 10 µM): 0%
- inhibition at 10 µM (M14; M14 (Melanoma), NCI one dose 10 µM): 0%
- inhibition at 10 µM (MALME-3M; MALME-3M (Melanoma), NCI one dose 10 µM): 2.95%
- inhibition at 10 µM (MDA-MB-435; MDA-MB-435 (Melanoma), NCI one dose 10 µM): 0%
- inhibition at 10 µM (SNB-19; SNB-19 (CNS Cancer), NCI one dose 10 µM): 0%
- inhibition at 10 µM (MDA-MB-231/ATCC; MDA-MB-231/ATCC (Breast Cancer), NCI one dose 10 µM): 8.78%
- inhibition at 10 µM (SK-MEL-28; SK-MEL-28 (Melanoma), NCI one dose 10 µM): 0%
- inhibition at 10 µM (NCI-H322M; NCI-H322M (Non-Small Cell Lung Cancer), NCI one dose 10 µM): 0%
- inhibition at 10 µM (A498; A498 (Renal Cancer), NCI one dose 10 µM): 0%
- inhibition at 10 µM (SF-539; SF-539 (CNS Cancer), NCI one dose 10 µM): 16.4%
- inhibition at 10 µM (SNB-75; SNB-75 (CNS Cancer), NCI one dose 10 µM): 9.72%
- inhibition at 10 µM (A549/ATCC; A549/ATCC (Non-Small Cell Lung Cancer), NCI one dose 10 µM): 0%
- inhibition at 10 µM (NCI-H522; NCI-H522 (Non-Small Cell Lung Cancer), NCI one dose 10 µM): 1.56%
- inhibition at 10 µM (SK-MEL-5; SK-MEL-5 (Melanoma), NCI one dose 10 µM): 4.49%
- inhibition at 10 µM (TK-10; TK-10 (Renal Cancer), NCI one dose 10 µM): 0%
- inhibition at 10 µM (COLO 205; COLO 205 (Colon Cancer), NCI one dose 10 µM): 0%
- inhibition at 10 µM (NCI/ADR-RES; NCI/ADR-RES (Ovarian Cancer), NCI one dose 10 µM): 0%
- IC50 [4]: 1200 ± 100 nM
- IC50 (BRAF^V600E): 4200 ± 300 nM
- IC50 (EGFR): 3500 ± 300 nM
